From ChEMBL document CHEMBL2016457, “Discovery of potent and orally bioavailable 17β-hydroxysteroid dehydrogenase type 3 inhibitors” (Bioorg Med Chem, 2012)
Active and inactive are the calls of the source. No rule for the calls is given here.

Columns and labels:
[1] = target: T1, 17-beta-hydroxysteroid dehydrogenase type 1 (Homo sapiens) (UniProt P14061); experiment: Inhibition of human recombinant 17-beta-HSD1 expressed in human HeLa cells using estrone as substrate preincubated for 30 mins prior substrate addition measured after 120 mins by spectrophotometry; type: cell-based
T1 sequence (whole entry): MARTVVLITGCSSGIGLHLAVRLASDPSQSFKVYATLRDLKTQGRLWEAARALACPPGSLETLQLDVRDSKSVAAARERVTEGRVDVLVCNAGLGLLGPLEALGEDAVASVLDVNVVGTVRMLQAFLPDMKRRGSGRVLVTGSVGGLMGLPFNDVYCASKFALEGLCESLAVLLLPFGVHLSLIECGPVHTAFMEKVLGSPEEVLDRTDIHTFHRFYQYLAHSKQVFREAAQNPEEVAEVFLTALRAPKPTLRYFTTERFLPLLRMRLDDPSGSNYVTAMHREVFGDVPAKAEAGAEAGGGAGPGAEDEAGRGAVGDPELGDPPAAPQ

[2] = target: T2, 17-beta-hydroxysteroid dehydrogenase type 2 (Homo sapiens) (UniProt P37059); experiment: Inhibition of human recombinant 17-beta-HSD2 expressed in human HeLa cells using estradiol as substrate preincubated for 30 mins prior substrate addition measured after 120 mins by spectrophotometry; type: cell-based
T2 sequence (whole entry): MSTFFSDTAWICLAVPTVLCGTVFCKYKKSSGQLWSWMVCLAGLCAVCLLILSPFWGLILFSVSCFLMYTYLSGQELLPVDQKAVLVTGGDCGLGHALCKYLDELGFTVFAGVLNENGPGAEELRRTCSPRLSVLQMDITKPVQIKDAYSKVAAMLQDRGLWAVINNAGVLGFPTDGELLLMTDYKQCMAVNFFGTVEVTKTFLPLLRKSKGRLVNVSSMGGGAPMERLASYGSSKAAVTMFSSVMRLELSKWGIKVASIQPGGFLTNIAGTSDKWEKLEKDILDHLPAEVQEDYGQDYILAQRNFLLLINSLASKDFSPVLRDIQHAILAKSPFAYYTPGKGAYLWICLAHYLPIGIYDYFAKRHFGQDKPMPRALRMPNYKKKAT

[3] = target: T3, Androgen receptor (Homo sapiens) (UniProt P10275); experiment: Agonist activity at human androgen receptor expressed in human HeLa cells assessed as DHT-induced response after 40 hrs by luciferase/beta-galactosidase-based reporter gene assay; type: functional, cell-based
T3 sequence (whole entry): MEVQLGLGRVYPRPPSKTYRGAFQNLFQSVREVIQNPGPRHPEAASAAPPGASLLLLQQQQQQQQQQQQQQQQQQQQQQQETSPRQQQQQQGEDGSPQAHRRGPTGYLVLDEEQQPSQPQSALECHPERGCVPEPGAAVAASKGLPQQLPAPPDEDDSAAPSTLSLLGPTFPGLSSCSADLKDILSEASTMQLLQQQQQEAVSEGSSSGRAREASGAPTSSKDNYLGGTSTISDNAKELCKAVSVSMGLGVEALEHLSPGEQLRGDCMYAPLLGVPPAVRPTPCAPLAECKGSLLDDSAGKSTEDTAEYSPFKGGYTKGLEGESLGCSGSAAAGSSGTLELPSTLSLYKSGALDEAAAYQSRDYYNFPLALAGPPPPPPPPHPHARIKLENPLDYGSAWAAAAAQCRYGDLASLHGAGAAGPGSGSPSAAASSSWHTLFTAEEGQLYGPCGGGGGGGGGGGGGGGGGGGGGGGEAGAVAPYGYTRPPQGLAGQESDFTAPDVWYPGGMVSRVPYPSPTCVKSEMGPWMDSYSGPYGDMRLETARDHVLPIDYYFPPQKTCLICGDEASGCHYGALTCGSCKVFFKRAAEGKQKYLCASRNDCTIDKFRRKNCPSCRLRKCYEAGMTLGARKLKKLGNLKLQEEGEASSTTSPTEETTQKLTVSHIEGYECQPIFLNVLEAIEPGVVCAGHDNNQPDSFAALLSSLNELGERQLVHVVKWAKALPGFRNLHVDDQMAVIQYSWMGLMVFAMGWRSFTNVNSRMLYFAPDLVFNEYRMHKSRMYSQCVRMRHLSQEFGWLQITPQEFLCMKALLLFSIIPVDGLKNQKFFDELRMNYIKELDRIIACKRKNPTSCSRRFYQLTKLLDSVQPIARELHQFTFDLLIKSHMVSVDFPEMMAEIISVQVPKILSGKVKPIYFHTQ

[4] = target: T4, Estrogen receptor (Homo sapiens) (UniProt P03372); experiment: Agonist activity at human Estrogen receptor ERalpha expressed in human HeLa cells assessed as DHT-induced response after 40 hrs by luciferase/beta-galactosidase-based reporter gene assay; type: functional, cell-based
T4 sequence (whole entry): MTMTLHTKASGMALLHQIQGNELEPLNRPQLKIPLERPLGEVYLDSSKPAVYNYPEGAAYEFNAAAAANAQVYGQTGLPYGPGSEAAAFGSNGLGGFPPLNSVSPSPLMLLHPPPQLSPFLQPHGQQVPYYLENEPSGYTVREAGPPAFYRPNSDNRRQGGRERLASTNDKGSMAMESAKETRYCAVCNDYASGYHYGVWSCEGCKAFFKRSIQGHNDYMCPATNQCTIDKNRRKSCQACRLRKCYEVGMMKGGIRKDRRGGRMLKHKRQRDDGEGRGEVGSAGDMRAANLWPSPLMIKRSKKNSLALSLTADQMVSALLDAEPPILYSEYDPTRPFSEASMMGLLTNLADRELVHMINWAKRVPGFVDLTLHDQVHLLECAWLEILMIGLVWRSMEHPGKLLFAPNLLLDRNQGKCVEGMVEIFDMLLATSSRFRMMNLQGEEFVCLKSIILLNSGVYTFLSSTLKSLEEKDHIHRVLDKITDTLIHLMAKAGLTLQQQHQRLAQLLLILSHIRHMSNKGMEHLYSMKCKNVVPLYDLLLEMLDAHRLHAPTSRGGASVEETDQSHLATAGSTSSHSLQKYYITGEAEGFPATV

[5] = target: T5, Glucocorticoid receptor (Homo sapiens) (UniProt P04150); experiment: Agonist activity at human Glucocorticoid receptor expressed in human HeLa cells assessed as DHT-induced response after 40 hrs by luciferase/beta-galactosidase-based reporter gene assay; type: functional, cell-based
T5 sequence (whole entry): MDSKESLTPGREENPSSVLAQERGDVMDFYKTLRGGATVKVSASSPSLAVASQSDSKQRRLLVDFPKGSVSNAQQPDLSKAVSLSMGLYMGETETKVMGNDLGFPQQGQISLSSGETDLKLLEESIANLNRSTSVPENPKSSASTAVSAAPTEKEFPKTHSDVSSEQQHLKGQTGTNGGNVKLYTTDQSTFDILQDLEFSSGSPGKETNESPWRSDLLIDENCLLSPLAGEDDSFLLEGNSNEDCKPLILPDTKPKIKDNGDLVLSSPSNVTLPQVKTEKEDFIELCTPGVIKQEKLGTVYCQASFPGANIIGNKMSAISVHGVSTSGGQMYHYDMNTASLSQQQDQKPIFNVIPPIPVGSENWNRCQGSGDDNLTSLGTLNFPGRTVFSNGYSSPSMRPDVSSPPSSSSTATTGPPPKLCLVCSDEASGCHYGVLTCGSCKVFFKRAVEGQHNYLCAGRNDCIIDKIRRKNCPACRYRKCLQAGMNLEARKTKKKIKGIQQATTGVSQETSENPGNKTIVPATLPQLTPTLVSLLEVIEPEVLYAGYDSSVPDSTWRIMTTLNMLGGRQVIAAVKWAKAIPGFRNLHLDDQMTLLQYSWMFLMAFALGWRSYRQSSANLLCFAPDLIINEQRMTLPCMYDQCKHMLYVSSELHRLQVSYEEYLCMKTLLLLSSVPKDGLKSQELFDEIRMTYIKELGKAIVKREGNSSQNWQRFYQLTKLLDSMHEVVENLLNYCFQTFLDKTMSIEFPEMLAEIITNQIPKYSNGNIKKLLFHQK

[6] = target: T3, Androgen receptor (Homo sapiens); experiment: Antagonist activity at human androgen receptor expressed in human HeLa cells assessed as inhibition of DHT-induced response after 40 hrs by luciferase/beta-galactosidase-based reporter gene assay; type: functional, cell-based
[7] = target: T4, Estrogen receptor (Homo sapiens); experiment: Antagonist activity at human ERalpha receptor expressed in human HeLa cells assessed as inhibition of DHT-induced response after 40 hrs by luciferase/beta-galactosidase-based reporter gene assay; type: functional, cell-based
[8] = target: T5, Glucocorticoid receptor (Homo sapiens); experiment: Antagonist activity at human GR receptor expressed in human HeLa cells assessed as inhibition of DHT-induced response after 40 hrs by luciferase/beta-galactosidase-based reporter gene assay; type: functional, cell-based
[9] = target: T6, 17-beta-hydroxysteroid dehydrogenase type 3 (Homo sapiens, UniProt P37058)
T6 sequence (P37058 whole entry): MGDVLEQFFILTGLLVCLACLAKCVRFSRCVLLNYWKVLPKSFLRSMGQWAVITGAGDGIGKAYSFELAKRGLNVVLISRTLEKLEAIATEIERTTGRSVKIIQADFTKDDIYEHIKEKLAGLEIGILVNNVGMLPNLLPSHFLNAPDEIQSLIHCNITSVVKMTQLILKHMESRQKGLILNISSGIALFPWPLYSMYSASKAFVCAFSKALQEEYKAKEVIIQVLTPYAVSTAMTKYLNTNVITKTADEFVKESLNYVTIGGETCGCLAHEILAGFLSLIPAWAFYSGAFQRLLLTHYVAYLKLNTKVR
Description: Inhibition of human recombinant 17-beta-HSD3 expressed in human HeLa cells using androstenedione as substrate preincubated for 30 mins prior substrate addition measured after 120 mins by spectrophotometry

Compound | inhibition [1] | inhibition [2] | Activity [3] | Activity [4] | Activity [5] | Activity [6] | Activity [7] | Activity [8] | IC50 [9] [nM]
COC(=O)c1ccc(N2C(=O)O/C(=C\c3ccc(O)c(Br)c3)C2=O)cc1 | inactive | inactive | inactive | inactive | inactive | inactive | inactive | inactive | 24
CC(=O)Nc1ccc(N2C(=O)O/C(=C\c3ccc(O)c(Br)c3)C2=O)cc1 | inactive | inactive | inactive | inactive | inactive | inactive | inactive | inactive | 57
COc1cccc(N2C(=O)/C(=C/c3ccc(O)c(Br)c3)OC2=S)c1 | inactive | inactive | inactive | inactive | inactive | inactive | inactive | inactive | 7
N#Cc1ccc(N2C(=O)/C(=C/c3ccc(O)c(Br)c3)OC2=S)cc1 | inactive | inactive | inactive | inactive | inactive | inactive | inactive | inactive | 19
O=C1O/C(=C\c2ccc(O)c(Br)c2)C(=O)N1c1ccc(Cl)nc1 | inactive | inactive | inactive | inactive | inactive | inactive | inactive | inactive | 20
O=C1O/C(=C\c2ccc(O)c(Br)c2)C(=O)N1c1ccccn1 | inactive | inactive | inactive | inactive | inactive | inactive | inactive | inactive | 74
COc1ccc(N2C(=O)/C(=C/c3ccc(O)c(C)c3)OC2=S)cc1 | inactive | inactive | inactive | inactive | inactive | inactive | inactive | inactive | 20
CN(C)C(=O)c1ccc(N2C(=O)O/C(=C\c3ccc(O)c(Br)c3)C2=O)cc1 | inactive | inactive | inactive | inactive | inactive | inactive | inactive | inactive | 65
Cc1ccc(N2C(=O)/C(=C/c3ccc(O)c(Br)c3)OC2=S)cc1 | inactive | inactive | inactive | inactive | inactive | inactive | inactive | inactive | 2
C=CCN1C(=O)/C(=C/c2ccc(O)c(Br)c2)SC1=S | inactive | inactive | inactive | inactive | inactive | inactive | inactive | inactive | 120
O=C1O/C(=C\c2ccc(O)c(Br)c2)C(=O)N1c1cccnc1 | inactive | inactive | inactive | inactive | inactive | inactive | inactive | inactive | 22
